Structures can show the parent of a compound that is named as a salt. Where two headings read alike, the source gives them in different places.
Tests used:
serotonergic activity = assay: "wet dog shake" (WDS) behavior, serotonergic activity; format: in vivo, male Sprague-Dawley rats
Method: A decrease in serotonergic activity has been correlated with the occurrence of affective disorders, such as depression and anxiety. […] The test is carried out in the morning on male Sprague-Dawley rats (±180 g), divided the previous day into groups of 8 animals in residence cages. The cage used for the tests is a transparent enclosure of 12×24×30 cm in height, the floor of which is covered with a layer of sand. The compounds to be tested, dissolved either in physiological salt solution or in a citrate buffer of pH 5, are administered intraperitoneally in a different dose for each group treated. The control groups receive an intraperitoneal injection of the same vehicle (either physiological salt solution or citrate buffer). […] The mean values of the results are calculated and analyzed statistically by the Mann-Whitney method. The mean values of the number of shakes obtained for the compounds according to the invention administered intraperitoneally at the doses indicated (in mg/kg) are given in Table V below.

[1] = test system: anaphylactic release of histamine, guinea-pig lung sections; assay: inhibition of the anaphylactic release of histamine (proper effect); format: cell-based, Dunkin-Hartley guinea-pigs; settings: Cavia porcellus, in vitro, read-out: Minimum inhibitory dose (MID)
Method: (§1) Dunkin-Hartley guinea-pigs which are first passively sensitized by an intravenous injection of 1 ml of isologous antiovalbumin serum are used. Twenty-four hours after the injection, the lungs are then perfused with a Tyrode buffer to evacuate the blood, and then removed and cut into sections of 1 mm. These sections are divided up into test tubes (3 sections per tube) to give 10 experimental groups of lung sections per guinea-pig. A "positive" control group of lung sections is stimulated by addition of an ovalbumin solution (0.1 mg/ml) to induce the anaphylactic release of histamine and serves to determine the maximum amount of histamine (100%) which can be released. A "negative" control group which is not stimulated by ovalbumin serves to determine the naturally released amount of histamine (spontaneous release). In three other groups, the lung sections are incubated at 37° C. for 30 minutes in the ovalbumin solution in the presence of three different doses of the compound to be tested (one dose per group). […] At this dose, isoprenaline inhibits the release of histamine by 30 to 40%, which is verified on a control group treated only with isoprenaline alone at this dose. In addition, a supplementary control group which is not stimulated by ovalbumin is used to detect a possible spontaneous release of histamine by the highest dose of the compound tested. In each group, the histamine released in the incubation medium is measured by spectrofluorometry (D. P. EVANS et al., Life Sci., 12, (1973), 327-336).

[2] = test system: bronchospasm induced by serotonin; assay: bronchospasmolytic activity (Konzett and Roessler), bronchospasm induced by serotonin; format: in vivo, Dunkin-Hartley guinea-pig; settings: Cavia porcellus; intravenous; serotonin-induced bronchospasm; read-out: Doses (ID50), Serotonin
Method: (§2) This activity was measured in the Dunkin-Hartley guinea-pig by the method of H. KONZETT and […] (Naunyn Schmiedebergs Arch. exp. Path. […] The anesthetized (urethane) and curarized (gallamine) guinea-pig is placed under assisted respiration. The endotracheal pressure is recorded. […] The compound to be tested is also administered intravenously two minutes before the administration of the spasmogen and then in 3 to 4 cumulative doses in increasing amounts at intervals of 15 minutes. Six animals per compound to be tested and per spasmogen are used.

toxicity, Irwin's test = format: in vivo; settings: i.p.; death of two animals out of three within 48 hours
Method: Progressive doses of the compound to be tested are administered intraperitoneally to groups of three mice until the lethal dose is reached (dose which causes the death of two animals out of three within 48 hours).

[3] = test system: bronchospasm induced by acetylcholine; assay: bronchospasmolytic activity (Konzett and Roessler), bronchospasm induced by acetylcholine; format: in vivo, Dunkin-Hartley guinea-pig; settings: Cavia porcellus; intravenous; acetylcholine-induced bronchospasm; read-out: Doses (ID50), Acetylcholine
Method: as §2

[4] = test system: plantar edema induced by immune complexes; assay: "reverse passive Arthus" (RPA) test, anti-inflammatory and anti-edema activity; format: in vivo, Sprague-Dawley rat; settings: Rattus norvegicus, intravenous
Method: The reaction between a soluble antigen and antibodies in the organism may lead to an acute inflammatory reaction accompanied by release of histamine, modification of vascular permeability and formation of a localized edema. […] To this end, the Arthus reaction is induced by subplantar administration of 0.1 ml of heterologous antivalbumin reaginic serum into the right hind paw and by simultaneous intravenous injection of 1 ml/kg ovalbumin (25 mg/ml). The compound to be tested is administered intravenously 30 seconds before induction of the Arthus reaction, in a least 3 different doses. A group of 6 rats is used per dose of compound to be tested. The volume of the paw is measured by plethysmometry before the Arthus reaction and 3 to 5 hours after induction of the Arthus reaction, both in the control animals and in the treated animals. The effect of a compound on the reduction in the edema for each dose and at each measurement time (3 hours and 5 hours) is expressed in % of the edema observed in the control animals. The doses of the compounds (ID30 in μmole/kg) which inhibit by 30%, on average over all the animals, the volume of the edema observed in the control animals are given in Table VII below.

[5] = test system: anaphylactic release of histamine, guinea-pig lung sections; assay: potentiation of the inhibition of anaphylactic histamine release by isoprenaline; format: cell-based, Dunkin-Hartley guinea-pigs; settings: with isoprenaline 10^-7 mole per liter
Method: as §1

[6] = test system: bronchospasm induced by histamine; assay: bronchospasmolytic activity (Konzett and Roessler), bronchospasm induced by histamine; format: in vivo, Dunkin-Hartley guinea-pig; settings: Cavia porcellus; intravenous; histamine-induced bronchospasm; read-out: Doses (ID50), Histamine
Method: as §2

[7] = test system: longitudinal muscles of the ileum contracted by histamine; assay: potentiation of the myorelaxing effect of isoprenaline on the ileum; format: cell-based, Dunkin-Hartley guinea-pigs; settings: with isoprenaline 10^-7 mole/l; histamine 3.2 μmoles/l
Method: (cf. R. A. TURNER, "Screening Methods in Pharmacology", Ed. Acad. Press, San Diego, 1965, chapter IV, pages 43-47). […] Inhibition cycle: When the successive contractions induced by the histamine injections have become reproducible, the compound to be tested is injected immediately after the second wash. The contraction induced by the following injection of histamine is measured and compared with the average of the three preceding contractions caused by the repeated injections of histamine (control contractions). From the result obtained, the percentage inhibition of the contraction is calculated. Several cycles of histamine injection are then performed again, until the contractions of the muscle become reproducible again; the muscle is then ready for testing of another compound. The potentiating effect of a compound is measured in the course of a so-called "potentiation" cycle, which comprises three successive inhibition cycles. […] In the course of the second inhibition cycle, the percentage inhibition of the contraction obtained with the compound to be tested, injected alone at a given dose, is determined. In the third inhibition cycle, isoprenaline and the compound to be tested are injected simultaneously, and the percentage inhibition of the contraction is calculated for the dose used of the compound tested. The same experiments are repeated for each of the doses of the compounds tested.

[8] = 3 hours after induction of the Arthus reaction, read-out: Dose (ID30), 3 hours
[9] = 5 hours after induction of the Arthus reaction, read-out: Dose (ID30), 5 hours

With `N[C@@H](Cc1c[nH]c2ccc(O)cc12)C(=O)O` [5-HTP/carbidopa, 5-hydroxytryptophan, reference compound] the “Average number of shakes” value (serotonergic activity; 5-HTP 100.0 mg/kg i.p. after carbidopa 25 mg/kg i.p., measured 90 to 120 minutes after 5HTP) was 4.7 ± 1.5 shakes and the “Average number of shakes” value (serotonergic activity; 5-HTP 200.0 mg/kg i.p. after carbidopa 25 mg/kg i.p., measured 90 to 120 minutes after 5HTP) was 19.6 ± 3.0 shakes.
For `C1CCC(c2nc(NC3CC3)nc(N3CCOCC3)n2)C1` [Compound 8], the minimal effective concentration [1] was 1 µM, the ED50 [2] was 0.3 µmol/kg and the Lethal dose (toxicity, Irwin's test) was 326 mg/kg. The ED50 [3] was 0.2 µmol/kg, the ED30 [4, 8] was 4 µmol/kg and the ED30 [4, 9] was 4 µmol/kg. The “Minimum potentiating dose (MPD)” value [5] was 10.0 µmol/L and the ED50 [6] was 0.1 µmol/kg.
`O=C1CN(c2nc(NC3CC3)nc(C3CC3)n2)C1` [Compound 17] showed a minimal effective concentration [1] of 3.2 µM, an ED50 [2] of 0.2 µmol/kg and a Lethal dose (toxicity, Irwin's test) of 281.5 mg/kg. The “Minimum potentiating dose (MPD)” value [7] was 0.32 µmol/L, the ED50 [3] was 0.2 µmol/kg and the ED30 [4, 8] was 1 µmol/kg. For the same compound, the ED30 [4, 9] was 1 µmol/kg, the “Minimum potentiating dose (MPD)” value [5] was 1.0 µmol/L and the “Average number of shakes” value (serotonergic activity; 2.8 mg/kg i.p., counted over 30 minutes) was 10.5 ± 2.9 shakes. For the same compound, the ED50 [6] was 0.1 µmol/kg.
For `C1CN(c2nc(NC3CC3)nc(C3CC3)n2)CCS1` [Compound 18, 2-Cyclopropyl-4-cyclopropylamino-6-thiomorpholino-1,3,5-triazine], the minimal effective concentration [1] was 0.1 µM, the Lethal dose (toxicity, Irwin's test) was 277 mg/kg and the “Minimum potentiating dose (MPD)” value [7] was 0.1 µmol/L. The ED30 [4, 8] was 1 µmol/kg, the ED30 [4, 9] was 1 µmol/kg and the “Minimum potentiating dose (MPD)” value [5] was 1.0 µmol/L. The “Average number of shakes” value (serotonergic activity; 0.88 mg/kg i.p., counted over 30 minutes) was 10.6 ± 3.0 shakes and the ED50 [6] was 0.003 µmol/kg.
Work on `[O-][S+]1CCN(c2nc(NC3CC3)nc(C3CC3)n2)CC1` [Compound 19, 2-Cyclopropyl-4-cyclopropylamino-6-thiomorpholino-1,3,5-triazine S-oxide] yielded a minimal effective concentration [1] of 1 µM, an ED50 [2] of 0.04 µmol/kg and a Lethal dose (toxicity, Irwin's test) of 175.6 mg/kg. The “Minimum potentiating dose (MPD)” value [7] was 0.32 µmol/L, the ED50 [3] was 0.1 µmol/kg and the ED30 [4, 8] was 0.02 µmol/kg. For the same compound, the ED30 [4, 9] was 0.02 µmol/kg, the “Minimum potentiating dose (MPD)” value [5] was 0.1 µmol/L and the “Average number of shakes” value (serotonergic activity; 0.94 mg/kg i.p., counted over 30 minutes) was 16.0 ± 4.7 shakes. The ED50 [6] was 0.02 µmol/kg.
In the case of `O=S1(=O)CCN(c2nc(NC3CC3)nc(C3CC3)n2)CC1` [Compound 20, 2-Cyclopropyl-4-cyclopropylamino-6-thiomorpholino-1,3,5-triazine S,S-dioxide], the minimal effective concentration [1] is reported as 1 µM, the ED50 [2] is reported as 0.4 µmol/kg and the Lethal dose (toxicity, Irwin's test) is reported as 185 mg/kg. The “Minimum potentiating dose (MPD)” value [7] was 0.1 µmol/L, the ED50 [3] was 0.1 µmol/kg and the ED30 [4, 8] was 1 µmol/kg. The ED30 [4, 9] was 0.5 µmol/kg, the “Minimum potentiating dose (MPD)” value [5] was 0.32 µmol/L and the “Average number of shakes” value (serotonergic activity; 0.99 mg/kg i.p., counted over 30 minutes) was 13.6 ± 2.3 shakes. The ED50 [6] was 0.03 µmol/kg.
For `C1CN(c2nc(NC3CC3)nc(C3CC3)n2)CS1` [Compound 21, 2-Cyclopropyl-4-cyclopropylamino-6-(3-thiazolidinyl)-1,3,5-triazine], the minimal effective concentration [1] was 0.1 µM, the Lethal dose (toxicity, Irwin's test) was 263 mg/kg and the “Minimum potentiating dose (MPD)” value [5] was 0.32 µmol/L. The “Average number of shakes” value (serotonergic activity; 2.63 mg/kg i.p., counted over 30 minutes) was 5.5 ± 2.0 shakes.
With `O=S1(=O)CCN(c2nc(NC3CC3)nc(C3CC3)n2)C1` [Compound 22, 2-Cyclopropyl-4-cyclopropylamino-6-(3-thiazolidinyl)-1,3,5-triazine S,S-dioxide] the minimal effective concentration [1] was 0.1 µM, the Lethal dose (toxicity, Irwin's test) was 295 mg/kg and the “Minimum potentiating dose (MPD)” value [5] was 0.032 µmol/L. For the same compound, the “Average number of shakes” value (serotonergic activity; 0.95 mg/kg i.p., counted over 30 minutes) was 8.1 ± 1.7 shakes.
Work on `[O-][S+]1CCN(c2nc(NC3CC3)nc(C3CC3)n2)C1` (centres unmarked) [Compound 23, 2-Cyclopropyl-4-cyclopropylamino-6-(3-thiazolidinyl)-1,3,5-triazine S-oxide] yielded a Lethal dose (toxicity, Irwin's test) of 156 mg/kg.
In the case of `CC1(c2nc(NC3CC3)nc(N3CCOCC3)n2)CC1` [Compound 24, 2-Cyclopropylamino-4-(1-methylcyclopropyl)-6-morpholino-1,3,5-triazine], the minimal effective concentration [1] is reported as 0.032 µM, the Lethal dose (toxicity, Irwin's test) is reported as 825 mg/kg and the “Minimum potentiating dose (MPD)” value [5] is reported as 0.32 µmol/L. The “Average number of shakes” value (serotonergic activity; 2.75 mg/kg i.p., counted over 30 minutes) was 6.1 ± 2.3 shakes and the ED50 [6] was 0.04 µmol/kg.
For `CC1CC1c1nc(NC2CC2)nc(N2CCOCC2)n1.Cl` (centres unmarked) [Compound 25, 2-Cyclopropylamino-4-(2-methylcyclopropyl)-6-morpholino-1,3,5-triazine hydrochloride], the minimal effective concentration [1] was 0.032 µM, the Lethal dose (toxicity, Irwin's test) was 99.7 mg/kg and the “Minimum potentiating dose (MPD)” value [5] was 0.032 µmol/L. The “Average number of shakes” value (serotonergic activity; 1.0 mg/kg i.p., counted over 30 minutes) was 19.6 ± 5.0 shakes.
In the case of `O=S1(=O)CCN(c2nc(NC3CC3)nc(C3CCC3)n2)CC1` [Compound 26, 2-Cyclobutyl-4-cyclopropylamino-6-thiomorpholino-1,3,5-triazine S,S-dioxide hydrochloride], the minimal effective concentration [1] is reported as 1 µM, the Lethal dose (toxicity, Irwin's test) is reported as 201.5 mg/kg and the “Minimum potentiating dose (MPD)” value [5] is reported as 0.32 µmol/L. The “Average number of shakes” value (serotonergic activity; 1.15 mg/kg i.p., counted over 30 minutes) was 11.8 ± 4.3 shakes and the ED50 [6] was 0.03 µmol/kg.

Reference: patent US5348956A, “Substituted cyclopropylamino-1,3,5-triazines” (UCB S.A., priority 1991, dated 1994)
